Measurements: PMC8537501 (2021)

Key:
[1] = system: CPG-c-myc (DNA, G4) TGGGGAGGGTGGGGAGGGTGGGGAAGGTGGGGA; assay: G4-CPG affinity chromatography; conditions: 50 mM KCl; 10% DMSO, 10% ethanol; 600 μM ligand
[2] = system: tel26 (DNA, G4) TTAGGGTTAGGGTTAGGGTTAGGGTT; assay: CD melting, 290 nm; conditions: 5 mM KCl; 5 mM phosphate, 5% DMSO, pH 7; 2 μM DNA, 20 μM ligand
[3] = system: ds27 (DNA, hairpin) CGCGAATTCGCGTTTCGCGAATTCGCG; assay: fluorescence titration; conditions: 5 mM KCl
[4] = system: ds27 (DNA, hairpin) CGCGAATTCGCGTTTCGCGAATTCGCG; assay: CD melting, 251 nm; conditions: 5 mM KCl; 5 mM phosphate, 5% DMSO, pH 7; 2 μM DNA, 20 μM ligand
[5] = system: c-myc (DNA, G4) TGGGGAGGGTGGGGAGGGTGGGGAAGGTGGGGA; assay: CD melting, 262 nm; conditions: 0.5 mM KCl; 0.5 mM phosphate, 5% DMSO, pH 7; 2 μM DNA, 20 μM ligand
[6] = system: c-myc (DNA, G4) TGGGGAGGGTGGGGAGGGTGGGGAAGGTGGGGA; assay: fluorescence titration; conditions: 5 mM KCl
[7] = system: tel26 (DNA, G4) TTAGGGTTAGGGTTAGGGTTAGGGTT; assay: fluorescence titration; conditions: 5 mM KCl
[8] = system: CPG-tel26 (DNA, G4) TTAGGGTTAGGGTTAGGGTTAGGGTT; assay: G4-CPG affinity chromatography; conditions: 50 mM KCl; 10% DMSO, 10% ethanol; 600 μM ligand
[9] = system: CPG-ds27 (DNA, hairpin) CGCGAATTCGCGTTTCGCGAATTCGCG; assay: G4-CPG affinity chromatography; conditions: 50 mM KCl; 10% DMSO, 10% ethanol; 600 μM ligand
[10] = 5 mM phosphate, 5% DMSO, pH 7, 20 °C, 2 μM ligand, independent equivalent-sites model

COC(=O)[C@@H]1[C@H]2C[C@H]3c4[nH]c5ccccc5c4CCN3C[C@@H]2CC[C@@H]1O
binding [1]: weak

CN1Cc2c(ccc3c2OCO3)[C@@H]2[C@H]1c1cc3c(cc1C[C@@H]2O)OCO3
ΔTm [2]: +4 °C | binding ([3]; 5 mM phosphate, 5% DMSO, pH 7, 20 °C, 2 μM ligand, DNA up to 10 μM): no | ΔTm [4]: −1 °C | ΔTm [5]: +13 °C | binding ([6]; 5 mM phosphate, 5% DMSO, pH 7, 20 °C, 2 μM ligand, enhancement then quenching, not fitted): yes | binding ([7]; 5 mM phosphate, 5% DMSO, pH 7, 20 °C, 2 μM ligand, quenching, not fitted): yes

CC(C)=CCc1c(C)cc2cc3c(c(O)c2c1O)C(=O)C=C(O)C3(CC=C(C)C)CC=C(CO)CO (stereo not shown)
binding [1]: weak | binding [8]: weak

CN1CC[C@]23C(=O)C[C@H]4C(=CCO[C@H]5CC(=O)N(c6c(O)cccc62)[C@H]3[C@H]54)C1
ΔTm [2]: 0 °C | ΔTm [4]: −3 °C | ΔTm [5]: +5 °C | binding [1]: yes | binding [8]: yes

CC1=C2C(=O)[C@H]3[C@@H](CC=C4C[C@@H](O)CC[C@@]43C)[C@@H]2CC[C@]12O[C@@H]1C[C@H](C)CN[C@H]1[C@H]2C
binding [9]: yes | binding [1]: yes | binding [8]: yes

COc1ccc2c(c1O)-c1c3c(cc4c1[C@H](C2)N(C)CC4)OCO3
Kb [3, 10]: 1.2 (±0.6) × 10^6 M^-1 | ΔTm [5]: +9 °C | Kb [6, 10]: 1.1 (±0.4) × 10^6 M^-1 | Kb [7, 10]: 1.0 (±0.4) × 10^6 M^-1

CC[C@H]1CN2CCc3cc(OC)c(OC)cc3[C@@H]2C[C@@H]1C[C@H]1NCCc2cc(OC)c(OC)cc21
binding [9]: yes | binding [1]: yes | binding [8]: yes

COc1cc2cc3c(c(O)c2c2c1C=CC(C)(C)O2)C(=O)CC(C)(O)C3 (stereo not shown)
binding [1]: weak | binding [8]: weak

CC(C)=CCC1=C(O)c2c(cc3cc(C)cc(O)c3c2O)C(CC=C(C)C)(CC=C(C)C)C1=O
binding [1]: weak | binding [8]: weak

CC[C@H]1C[C@@H]2C[C@H]3c4[nH]c5ccc(OC)cc5c4CCN(C2)[C@@H]13
ΔTm [2]: +2 °C | Kb [3]: 3.7 (±0.7) × 10^5 M^-1 | ΔTm [4]: 0 °C | Kb [6]: 3.9 (±0.7) × 10^5 M^-1 | Kb [7]: 4.1 (±0.8) × 10^5 M^-1

CC(C)(O)CC[C@@H](O)[C@](C)(O)[C@H]1CC[C@@]2(O)C3=CC(=O)[C@@H]4C[C@@H](O)[C@@H](O)C[C@]4(C)[C@H]3CC[C@]12C
binding [8]: weak
